Source: patent US9428507B2, “Compounds for the treatment of malaria” (The Broad Institute, Inc., priority 2013, dated 2016)
Where two headings read alike, the source gives them in different places.

System: Dd2 strain of P. falciparum
Assay: Activity against the Dd2 strain of P. falciparum (SYBR Green I, 72-h incubation)
Assay type: cell-based
Conditions: read-out: EC^50 Dd2
Procedure, shortened: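 Dd2 parasites at 1% parasitemia and 1.0% hematocrit in albumax II screening medium, 72 h at 37° C under 93% N2/4% CO2/3% O2; final DMSO 0.125%. Growth read as SYBR Green I fluorescence (485/530 nm) after lysis and 24 h staining. 20 μM mefloquine defined background, DMSO baseline.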

[1] = Plasmodium falciparum, DD2, 72 h

Row | EC50 [1] | Compound | EC50
1 | 4500 nM | CC(=O)Oc1ccc2c3c([nH]c2c1)[C@H](CO)N(C(C)=O)CC31CCN(C(=O)Nc2ccccc2F)CC1 [Compound 138, (R)-1-(1-(benzo[d]thiazol-2-yl)-1′-(hydroxymethyl)-7′-methoxyspiro [piperidine-4,4′-py(R)-2′-acetyl-1-((2-fluorophenyl)carbamoyl)-1′-(hydroxymethyl)-1′,2′,3′,9′-tetrahydrospiro [piperidine-4,4′-pyrido[3,4-b]indol]-7′-ylacetaterido[3,4-b]indol]-2′(1′H,3′H,9′H)-yl)ethanone] | –
2 | 343 nM | COc1ccc2c3c(n(C)c2c1)[C@@H](CO)N(C(=O)C1CC1)CC31CCN(C(=O)Nc2cccc(F)c2)CC1 [Compound 125, (S)-2′-(cyclopropanecarbonyl)-N-(3-fluorophenyl)-1′-(hydroxymethyl)-7′-methoxy-9′-methyl-1′,2′,3′,9′-tetrahydrospiro [piperidine-4,4′-pyrido[3,4-b]indole]-1-carboxamide] | –
3 | 1600 to 3280 nM | COc1ccc2c3c([nH]c2c1)[C@H](CO)N(C(C)=O)CC31CCN(S(=O)(=O)Cc2ccccc2F)CC1 [Compound 44, (R)-1-(1-((2-fluorobenzyl)sulfonyl)-1′-(hydroxymethyl)-7′-methoxyspiro[piperidine-4,4′-pyrido[3,4-b]indol]-2′(1′H,3′H,9′H)-yl)ethanone] | –
4 | 4490 to 9480 nM | COc1ccc2c3c([nH]c2c1)[C@H](CO)N(CC(F)(F)F)CC31CCN(C(=O)Nc2ccccc2F)CC1 [Compound 62, (R)-N-(2-fluorophenyl)-1′-(hydroxymethyl)-7′-methoxy-2′-(2,2,2-trifluoroethyl)-1′,2′,3′,9′-tetrahydrospiro[piperidine-4,4′-pyrido[3,4-b]indole]-1-carboxamide] | –
5 | 882 nM | COc1ccc2c3c([nH]c2c1)[C@H](CN1CCOCC1)N(C(C)=O)CC31CCN(C(=O)Nc2ccccc2F)CC1 [Compound 65, (S)-2′-acetyl-N-(2-fluorophenyl)-7′-methoxy-1′-(morpholinomethyl)-1′,2′,3′,9′-tetrahydrospiro[piperidine-4,4′-pyrido[3,4-b]indole]-1-carboxamide] | –
6 | 3380 nM | COc1ccc2c3c([nH]c2c1)[C@H](CO)N(C(C)=O)CC31CCN(C(=O)Nc2ccc(Cl)cc2)CC1 [Compound 10] | –
7 | 1300 nM | COc1ccc2c3c([nH]c2c1)[C@H](CO)N(C(=O)Nc1ccc(F)cc1)CC31CCN(S(=O)(=O)c2ccccc2)CC1 [Compound 80, (R)-N-(4-fluorophenyl)-1′-(hydroxymethyl)-7′-methoxy-1-(phenylsulfonyl)-3′,9′-dihydrospiro[piperidine-4,4′-pyrido[3,4-b]indole]-2′(1′H)-carboxamide] | –
8 | 221 nM | CCCS(=O)(=O)N1CC2(CCN(C(=O)Nc3ccccc3F)CC2)c2c([nH]c3cc(OC)ccc23)[C@@H]1CO [Compound 149, (R)-N-(2-fluorophenyl)-1′-(hydroxymethyl)-7′-methoxy-2′-(propylsulfonyl)-1′,2′,3′,9′-tetrahydrospiro [piperidine-4,4′-pyrido[3,4-b]indole]-1-carboxamide] | –
9 | 6710 nM | CC(=O)N1CC2(CCN(C(=O)Nc3ccccc3F)CC2)c2c([nH]c3cc(OC(C)C)ccc23)[C@@H]1CO [Compound 141, (R)-2′-acetyl-N-(2-fluorophenyl)-1′-(hydroxymethyl)-7′-isopropoxy-1′,2′,3′,9′-tetrahydrospiro [piperidine-4,4′-pyrido[3,4-b]indole]-1-carboxamide] | –
10 | 37 to 118 nM | COc1ccc2c3c([nH]c2c1)[C@H](CO)N(S(C)(=O)=O)CC31CCN(C(=O)Nc2ccccc2F)CC1 [Compound 53, (R)-N-(2-fluorophenyl)-1′-(hydroxymethyl)-7′-methoxy-2′-(methylsulfonyl)-1′,2′,3′,9′-tetrahydrospiro[piperidine-4,4′-pyrido[3,4-b]indole]-1-carboxamide] | –
11 | 214 to 345 nM | COc1ccc2c3c([nH]c2c1)[C@H](CO)N(C(C)=O)CC31CCN(C(=O)Nc2ccccc2Cl)CC1 [Compound 1, (R)-2′-acetyl-N-(2-chlorophenyl)-1′-(hydroxymethyl)-7′ -methoxy-1′,2′,3′,9′-tetrahydrospiro [piperidine-4,4′-pyrido [3,4-b]indole]-1-carboxamide] | –

Continued, compound first:

Row | Compound | EC50 [1] | EC50
12 | COc1ccc2c3c(n(C)c2c1)[C@@H](CO)N(C(=O)c1ccccc1)CC31CCN(C(=O)c2ccccc2)CC1 [Compound 115, (S)-(1′-(hydroxymethyl)-7′-methoxy-9′-methylspiro [piperidine-4,4′-pyrido[3,4-b]indol]-1,2′(1′ H,3′H,9′H)-diyl)bis(phenylmethanone)] | 1040 nM | –
13 | COc1ccc2c3c(n(C)c2c1)[C@H](CO)N(CC1CCCCC1)CC31CCN(Cc2nccs2)CC1 [Compound 85, (R)-(2′-(cyclohexylmethyl)-7′-methoxy-9′-methyl-1-(thiazol-2-ylmethyl)-1′,2′,3′,9′-tetrahydrospiro [piperidine-4,4′-pyrido[3,4-b]indol]-1′-yl)methanol] | 1620 nM | –
14 | COc1ccc2c3c(n(C)c2c1)[C@@H](CO)N(CC1CCCCC1)CC31CCN(Cc2nccs2)CC1 [Compound 109, (S)-(2′-(cyclohexylmethyl)-7′-methoxy-9′-methyl-1-(thiazol-2-ylmethyl)-1′,2′,3′,9′-tetrahydrospiro [piperidine-4,4′-pyrido[3,4-b]indol]-1′-yl)methanol] | 1030 nM | –
15 | COc1ccc2c3c(n(C)c2c1)[C@H](CO)N(Cc1ccc(Cl)cc1)CC31CCN(CC2CC2)CC1 [Compound 135, (R)-(2′-(4-chlorobenzyl)-1-(cyclopropylmethyl)-7′-methoxy-9′-methyl-1′,2′,3′,9′-tetrahydrospiro [piperidine-4,4′-pyrido[3,4-b]indol]-1′-yl) methanol] | 2230 nM | –
16 | COc1ccc2c3c([nH]c2c1)[C@H](CO)N(Cc1ccc(Cl)cc1)CC31CCN(Cc2nccs2)CC1 [Compound 87, (R)-(2′-(4-chlorobenzyl)-7′-methoxy-1-(thiazol-2-ylmethyl)-1′,2′,3′,9′-tetrahydrospiro [piperidine-4,4′-pyrido[3,4-b]indol]-1′-yl)methanol] | 78 nM | –
17 | COc1ccc2c3c([nH]c2c1)[C@@H](CO)N(Cc1ccncc1)CC31CCN(Cc2ccc(-c3ccccn3)cc2)CC1 [Compound 133, (S)-(7′-methoxy-1-(4-(pyridin-2-yl)benzy1)-2′-(pyridin-4-ylmethyl)-1′,2′,3′,9′-tetrahydrospiro [piperidine-4,4′-pyrido[3,4-b]indol]-1′-yl)methanol] | 613 nM | –
18 | COc1ccc2c3c([nH]c2c1)[C@H](CO)N(C(=O)CN(C)C)CC31CCN(CC2CCCCC2)CC1 [Compound 89, (R)-1-(1-(cyclohexylmethyl)-1′-(hydroxymethyl)-7′-methoxyspiro [piperidine-4,4′-pyrido[3,4-b]indol]-2′(1′ H,3′H,9′H)-yl)-2-(dimethylamino)ethanone] | 432 nM | –
19 | Mixture of (1R,3′R) and (1R,3′S)-tert-butyl 2-acetyl-1-(((tert- butyldimethylsilyl)oxy) methyl)-7-methoxy- 1,2,3,9- tetrahydrospiro [pyrido[3,4-b]indole- 4,3′-pyrrolidine]-1′- carboxylate compound with (1R,3′S)-tert-butyl 2-acetyl-1- (((tert-butyldimethylsilyl) oxy)methyl)-7- methyoxy-1,2,3,9- tetrahydrospiro[pyrido [3,4-b]indole-4,3′- pyrrolidine]-1′- carboxylate (1:1) [Compound 76] | – | 1470 nM
